Measurements from ChEMBL document CHEMBL1201862, “PubChem BioAssay data set” (2004).
One block for each compound: values may come before it. Calls of active or inactive are those of the source. Rule as the data show it, for most assays here: actives have a measured IC50 and inactives only a lower limit.

Assays:
[1] = target: Eukaryotic translation initiation factor 4H (Homo sapiens, UniProt Q15056); experiment: eIF4H binding inhibition – biochemical, uHTS, fluorescence polarization, translation initiation inhibitor project, primary screen (AID 2012)
[2] = target: T1, Mannose-6-phosphate isomerase (Homo sapiens, UniProt P34949); experiment: MPI inhibition at elevated mannose 6-phosphate – biochemical, fluorescence intensity, high mannose 6-phosphate, primary screen (AID 1220)
T1 sequence (P34949 whole entry): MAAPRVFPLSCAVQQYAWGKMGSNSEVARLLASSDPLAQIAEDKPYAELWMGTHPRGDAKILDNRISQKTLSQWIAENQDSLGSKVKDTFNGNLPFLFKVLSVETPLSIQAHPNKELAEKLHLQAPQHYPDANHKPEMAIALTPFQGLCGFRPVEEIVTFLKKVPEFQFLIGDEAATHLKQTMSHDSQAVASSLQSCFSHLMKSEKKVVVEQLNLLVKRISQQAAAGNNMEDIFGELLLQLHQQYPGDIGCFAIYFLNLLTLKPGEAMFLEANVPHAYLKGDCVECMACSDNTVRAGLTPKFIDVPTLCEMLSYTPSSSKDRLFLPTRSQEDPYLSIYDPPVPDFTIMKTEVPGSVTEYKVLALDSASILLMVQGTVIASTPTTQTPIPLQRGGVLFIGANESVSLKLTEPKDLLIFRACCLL

[3] = target: Polyadenylate-binding protein 1 (Homo sapiens, UniProt P11940); experiment: blockers of PABP interaction with poly(A) – biochemical, fluorescence polarization, […] (AID 2014)
Chaperone protein dnaK = Chaperone protein dnaK (Escherichia coli, UniProt C3TRK2); experiment: E. coli DnaK binders, calorimetric Kd – biophysical, isothermal titration calorimetry, beta-domain, full-length DnaK, orthogonal assay for DnaK modulator project, SAR follow-up (AID 1495)
Cytochrome P450 2D6 = Cytochrome P450 2D6 (Homo sapiens, UniProt P10635); experiment: qHTS Assay for Inhibitors and Substrates of Cytochrome P450 2D6. [Related pubchem assays: 410 ]; format: ADME; conditions: read-out: Potency
Chain of Cytochrome P450 2D6 (P10635 whole entry): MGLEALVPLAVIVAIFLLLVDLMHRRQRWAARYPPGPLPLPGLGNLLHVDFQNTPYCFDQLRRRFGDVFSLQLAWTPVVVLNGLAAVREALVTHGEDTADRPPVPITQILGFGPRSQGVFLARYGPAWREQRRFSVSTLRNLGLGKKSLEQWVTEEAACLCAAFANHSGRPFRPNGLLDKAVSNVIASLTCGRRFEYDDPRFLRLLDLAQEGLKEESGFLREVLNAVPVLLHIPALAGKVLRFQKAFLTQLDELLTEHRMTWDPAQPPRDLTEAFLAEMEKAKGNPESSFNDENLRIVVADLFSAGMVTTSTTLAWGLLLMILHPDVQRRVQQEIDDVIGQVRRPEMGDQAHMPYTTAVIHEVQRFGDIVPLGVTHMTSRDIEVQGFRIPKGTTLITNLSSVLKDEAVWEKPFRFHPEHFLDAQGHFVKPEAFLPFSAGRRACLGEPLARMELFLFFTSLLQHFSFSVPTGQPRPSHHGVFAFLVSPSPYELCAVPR

Chain of Polyadenylate-binding protein 1 (P11940 whole entry): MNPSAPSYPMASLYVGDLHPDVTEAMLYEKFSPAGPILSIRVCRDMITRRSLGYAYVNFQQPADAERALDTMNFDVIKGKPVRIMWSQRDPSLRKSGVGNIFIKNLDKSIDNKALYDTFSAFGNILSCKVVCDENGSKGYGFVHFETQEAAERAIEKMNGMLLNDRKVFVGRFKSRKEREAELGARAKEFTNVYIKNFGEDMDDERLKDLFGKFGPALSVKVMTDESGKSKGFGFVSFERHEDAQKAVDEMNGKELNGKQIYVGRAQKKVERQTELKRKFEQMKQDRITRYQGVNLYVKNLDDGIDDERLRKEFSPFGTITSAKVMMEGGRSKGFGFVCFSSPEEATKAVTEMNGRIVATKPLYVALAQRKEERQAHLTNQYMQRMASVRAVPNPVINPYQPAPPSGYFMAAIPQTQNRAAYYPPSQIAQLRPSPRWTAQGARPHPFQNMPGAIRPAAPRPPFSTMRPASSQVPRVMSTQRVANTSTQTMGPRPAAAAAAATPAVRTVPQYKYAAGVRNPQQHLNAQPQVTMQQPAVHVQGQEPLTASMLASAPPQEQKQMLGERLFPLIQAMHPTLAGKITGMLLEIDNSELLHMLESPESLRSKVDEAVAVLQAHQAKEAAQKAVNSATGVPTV
Chain of Chaperone protein dnaK (C3TRK2 whole entry): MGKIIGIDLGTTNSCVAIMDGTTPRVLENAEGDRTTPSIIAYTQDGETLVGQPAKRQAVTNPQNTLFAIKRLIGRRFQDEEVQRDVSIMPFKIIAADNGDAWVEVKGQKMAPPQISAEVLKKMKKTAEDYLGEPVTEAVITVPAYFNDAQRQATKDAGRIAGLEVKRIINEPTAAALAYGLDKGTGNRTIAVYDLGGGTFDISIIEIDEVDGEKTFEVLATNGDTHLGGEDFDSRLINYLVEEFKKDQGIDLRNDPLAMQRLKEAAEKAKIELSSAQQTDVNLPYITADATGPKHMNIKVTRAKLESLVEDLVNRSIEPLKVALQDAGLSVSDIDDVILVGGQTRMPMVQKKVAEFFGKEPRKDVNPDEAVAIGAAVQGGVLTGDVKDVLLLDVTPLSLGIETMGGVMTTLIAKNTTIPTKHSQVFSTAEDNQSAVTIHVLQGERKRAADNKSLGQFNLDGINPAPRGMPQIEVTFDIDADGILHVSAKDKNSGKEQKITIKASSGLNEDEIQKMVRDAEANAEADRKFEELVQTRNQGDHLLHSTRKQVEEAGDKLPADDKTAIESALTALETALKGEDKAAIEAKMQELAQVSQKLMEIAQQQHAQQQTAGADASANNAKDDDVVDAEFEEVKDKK

Structure (SMILES): COc1ccc(C(=O)C[N+]2(C)CCOCC2)cc1
IC50 [1]: > 100 µM (inactive) | IC50 [2]: > 50 µM (not active) | IC50 [3]: 4.41 µM (active)

Structure (SMILES): O=C(NCc1c(Cl)cccc1Cl)c1cccs1
Kd (Chaperone protein dnaK): 1.5 µM (active)

AC50 (Cytochrome P450 2D6): 31.6 µM (inconclusive)
Structure (SMILES): COc1cc(C(=O)O[C@@H]2CC(C)=CC[C@@]3(C)CC[C@](O)(C(C)C)[C@H]23)ccc1O
